From patent US9783537B2, “3-(4-ethylnylphenyl) pyridopyrimidinone compounds and process for preparation thereof useful as potential anticancer agents” (Council of Scientific & Industrial Research, priority 2013, dated 2017)
Like-named read-outs stand apart in the source and are kept apart here.

How the values were obtained:
[1] = tested on: HS578T; experiment: SRB 48 h growth assay, Breast HS578T; type: cell-based, human; conditions: for GI50 / CC50: Homo sapiens, Hs-578T; for CC50: read-out: Log10 LC50 (converted)
[2] = in vitro anticancer activity, non-small cell lung panel; type: cell-based; conditions: Homo sapiens; nine non-small cell lung cancer cell lines, exposure at least 48 h; read-out: GI50, range over panel
[3] = tested on: LOX IMVI; experiment: SRB 48 h growth assay, Melanoma LOX IMVI; type: cell-based, human
[4] = tested on: seven ovarian cancer cell lines (IGROV1, OVCAR-3, OVCAR-4, OVCAR-5, OVCAR-8, NCI/ADR-RES and SK-OV-3); experiment: in vitro anticancer activity, ovarian panel; type: cell-based; conditions: Homo sapiens, exposure at least 48 h, read-out: GI50, range over panel
[5] = tested on: NCI-H522; experiment: SRB 48 h growth assay, Non-small Cell Lung NCI-H522; type: cell-based, human
[6] = in vitro anticancer activity, melanoma panel; type: cell-based; conditions: Homo sapiens; nine melanoma cell lines, exposure at least 48 h; read-out: GI50, range over panel
[7] = tested on: HOP-62; experiment: SRB 48 h growth assay, Non-small Cell Lung HOP-62; type: cell-based, human; conditions: HOP-62, Non-small Cell Lung
[8] = tested on: 786-0; experiment: SRB 48 h growth assay, Renal 786-0; type: cell-based, human; conditions: 786-0, Renal
[9] = tested on: M14; experiment: SRB 48 h growth assay, Melanoma M14; type: cell-based, human
[10] = tested on: TK-10; experiment: SRB 48 h growth assay, Renal TK-10; type: cell-based, human; conditions: TK-10, Renal; for CC50 / GI50: Homo sapiens; for CC50: read-out: Log10 LC50 (converted)
[11] = tested on: RXF393; experiment: SRB 48 h growth assay, Renal RXF393; type: cell-based, human; conditions: for GI50 / CC50: Homo sapiens; for CC50: RXF 393, read-out: Log10 LC50 (converted)
[12] = tested on: MCF7; experiment: SRB 48 h growth assay, Breast MCF7; type: cell-based, human; conditions: for GI50 / CC50: Homo sapiens; for CC50: read-out: Log10 LC50 (converted)
[13] = tested on: KM12; experiment: SRB 48 h growth assay, Colon KM12; type: cell-based, human
[14] = tested on: OVCAR-4; experiment: SRB 48 h growth assay, Ovarian OVCAR-4; type: cell-based, human; conditions: OVCAR-4, Ovarian
[15] = tested on: MDA-MB-231/ATCC; experiment: SRB 48 h growth assay, Breast MDA-MB-231/ATCC; type: cell-based, human; conditions: for CC50 / GI50: Homo sapiens; for CC50: read-out: Log10 LC50 (converted)
[16] = tested on: HL-60(TB); experiment: SRB 48 h growth assay, Leukemia HL-60(TB); type: cell-based, human
[17] = tested on: MDA-MB-468; experiment: SRB 48 h growth assay, Breast MDA-MB-468; type: cell-based, human; conditions: MDA-MB-468, Breast
[18] = tested on: SW-620; experiment: SRB 48 h growth assay, Colon SW-620; type: cell-based, human; conditions: SW-620, Colon; for GI50 / CC50: Homo sapiens; for CC50: read-out: Log10 LC50 (converted)
[19] = tested on: SK-OV-3; experiment: SRB 48 h growth assay, Ovarian SK-OV-3; type: cell-based, human; conditions: SK-OV-3, Ovarian; for GI50 / CC50: Homo sapiens; for CC50: read-out: Log10 LC50 (converted)
[20] = tested on: BT-549; experiment: SRB 48 h growth assay, Breast BT-549; type: cell-based, human; conditions: BT-549, Breast
[21] = tested on: K-562; experiment: SRB 48 h growth assay, Leukemia K-562; type: cell-based, human; conditions: for GI50 / CC50: Homo sapiens, K562, K-562, Leukemia; for CC50: read-out: Log10 LC50 (converted); for Log10 TGI50: K-562, Leukemia
[22] = tested on: SK-MEL-5; experiment: SRB 48 h growth assay, Melanoma SK-MEL-5; type: cell-based, human; conditions: SK-MEL-5, Melanoma
[23] = tested on: SNB-19; experiment: SRB 48 h growth assay, CNS SNB-19; type: cell-based, human; conditions: SNB-19, CNS; for CC50 / GI50: Homo sapiens; for CC50: read-out: Log10 LC50 (converted)
[24] = tested on: OVCAR-8; experiment: SRB 48 h growth assay, Ovarian OVCAR-8; type: cell-based, human; conditions: OVCAR-8, Ovarian; for GI50 / CC50: Homo sapiens; for CC50: read-out: Log10 LC50 (converted)
[25] = tested on: RPMI-8226; experiment: SRB 48 h growth assay, Leukemia RPMI-8226; type: cell-based, human; conditions: RPMI-8226, Leukemia; for GI50 / CC50: Homo sapiens; for CC50: read-out: Log10 LC50 (converted)
[26] = tested on: seven colon cancer cell line (COLO 205, HCC-2998, HCT-116, HCT-15, HT29, KM12 and SW-620); experiment: in vitro anticancer activity, colon panel; type: cell-based; conditions: Homo sapiens; seven colon cancer cell lines, exposure at least 48 h; read-out: GI50, range over panel
[27] = read-out: Growth Inhibition GI50
[28] = read-out: Log10 GI50 (converted)
[29] = Homo sapiens, read-out: Growth Inhibition GI50
[30] = Homo sapiens, read-out: Log10 GI50 (converted)
[31] = RXF 393, read-out: Growth Inhibition GI50
[32] = RXF 393, read-out: Log10 GI50 (converted)
[33] = Homo sapiens, read-out: Log10 LC50 (converted)

Structure (SMILES): C#Cc1ccc(-n2c(/C=C/c3ccc(Cl)c(F)c3)nc3ncccc3c2=O)cc1 [4g, (E)-2-(4-chloro-3-fluorostyryl)-3-(4-ethynylphenyl)pyrido[2,3-d]pyrimidin-4(3H)-one]
- Log10 TGI50 [1]: >−4.00
- GI50 [1, 27]: 0.41 µM
- GI50 [1, 28]: 0.417 µM
- CC50 [1]: > 100 µM
- GI50 [2]: 0.2 to 0.58 µM
- GI50 [3, 29]: 0.26 µM
- GI50 [3, 30]: 0.263 µM
- GI50 [4]: 0.3 to 0.48 µM
- GI50 [5, 29]: 0.27 µM
- GI50 [5, 30]: 0.275 µM
- GI50 [6]: 0.19 to 0.54 µM
- GI50 [7, 29]: 0.58 µM
- GI50 [7, 30]: 0.589 µM
- GI50 [8, 29]: 0.36 µM
- GI50 [8, 30]: 0.372 µM
- GI50 [9, 29]: 0.3 µM
- GI50 [9, 30]: 0.302 µM
- CC50 [10]: > 100 µM
- GI50 [11, 31]: 0.28 µM
- GI50 [11, 32]: 0.282 µM
- CC50 [11]: > 100 µM
- GI50 [12, 27]: 0.32 µM
- GI50 [12, 28]: 0.324 µM
- CC50 [12]: > 100 µM
- GI50 [13, 29]: 0.34 µM
- GI50 [13, 30]: 0.347 µM
- GI50 [14, 29]: 0.48 µM
- GI50 [14, 30]: 0.479 µM
- CC50 [15]: > 100 µM
- Log10 TGI50 [16]: >−4.00
- GI50 [17, 29]: 0.24 µM
- GI50 [17, 30]: 0.245 µM
- GI50 [18, 27]: 0.37 µM
- GI50 [18, 28]: 0.38 µM
- CC50 [18]: > 100 µM
- GI50 [19, 27]: 0.34 µM
- GI50 [19, 28]: 0.347 µM
- CC50 [19]: > 100 µM
- GI50 [20, 29]: 0.32 µM
- GI50 [20, 30]: 0.324 µM
- GI50 [21, 27]: 0.33 µM
- GI50 [21, 28]: 0.339 µM
- CC50 [21]: > 100 µM
- Log10 TGI50 [21]: >−4.00
- GI50 [22, 29]: 0.22 µM
- GI50 [22, 30]: 0.229 µM
- CC50 [23]: > 100 µM
- GI50 [24, 27]: 0.35 µM
- GI50 [24, 28]: 0.355 µM
- CC50 [24]: > 100 µM
- GI50 [25, 27]: 0.25 µM
- GI50 [25, 28]: 0.257 µM
- CC50 [25]: > 100 µM
- GI50 [26]: 0.33 to 0.37 µM

Structure (SMILES): C#Cc1ccc(-n2c(/C=C/c3cc(OC)c(OC)c(OC)c3)nc3ncccc3c2=O)cc1 [4q, (E)-3-(4-Ethynylphenyl)-2-(3,4,5-trimethoxystyryl)pyrido[2,3-d]pyrimidin-4(3H)-one]
- Log10 TGI50 [1]: −4.64
- GI50 [1, 27]: 3.67 µM
- GI50 [1, 28]: 3.63 µM
- CC50 [1]: > 100 µM
- GI50 [2]: 1.32 to 3.9 µM
- Log10 TGI50 [3]: −4.19
- GI50 [3, 29]: 4.61 µM
- GI50 [3, 30]: 4.57 µM
- CC50 [3, 33]: > 100 µM
- GI50 [4]: 1.67 to 3.61 µM
- Log10 TGI50 [5]: −5.20
- GI50 [5, 29]: 2.33 µM
- GI50 [5, 30]: 2.34 µM
- CC50 [5, 33]: 66.1 µM
- GI50 [6]: 1.49 to 2.27 µM
- Log10 TGI50 [7]: >−4.00
- GI50 [7, 29]: 13.3 µM
- GI50 [7, 30]: 13.2 µM
- CC50 [7, 33]: > 100 µM
- Log10 TGI50 [8]: >−4.00
- GI50 [8, 29]: 5.31 µM
- GI50 [8, 30]: 5.25 µM
- CC50 [8, 33]: > 100 µM
- Log10 TGI50 [9]: ->−4.00
- GI50 [9, 29]: 4.93 µM
- GI50 [9, 30]: 4.9 µM
- CC50 [9, 33]: > 100 µM
- GI50 [10, 27]: 17.3 µM
- GI50 [10, 28]: 17.4 µM
- CC50 [10]: > 100 µM
- Log10 TGI50 [10]: −4.20
- Log10 TGI50 [11]: >−4.00
- GI50 [11, 31]: 7.04 µM
- GI50 [11, 32]: 7.08 µM
- CC50 [11]: > 100 µM
- Log10 TGI50 [12]: >−4.00
- GI50 [12, 27]: 3.17 µM
- GI50 [12, 28]: 3.16 µM
- CC50 [12]: > 100 µM
- Log10 TGI50 [13]: −4.89
- GI50 [13, 29]: 3.32 µM
- GI50 [13, 30]: 3.31 µM
- CC50 [13, 33]: > 100 µM
- GI50 [14, 29]: 12 µM
- GI50 [14, 30]: 12 µM
- CC50 [14, 33]: > 100 µM
- Log10 TGI50 [14]: −4.04
- Log10 TGI50 [15]: >−4.00
- GI50 [15, 27]: 5.53 µM
- GI50 [15, 28]: 5.5 µM
- CC50 [15]: > 100 µM
- Log10 TGI50 [16]: −4.59
- GI50 [16, 29]: 3.84 µM
- GI50 [16, 30]: 3.8 µM
- CC50 [16, 33]: > 100 µM
- GI50 [17, 29]: 2.83 µM
- GI50 [17, 30]: 2.82 µM
- CC50 [17, 33]: > 100 µM
- Log10 TGI50 [17]: >−4.00
- GI50 [18, 27]: 3.29 µM
- GI50 [18, 28]: 3.31 µM
- CC50 [18]: > 100 µM
- Log10 TGI50 [18]: −4.30
- GI50 [19, 27]: 5.33 µM
- GI50 [19, 28]: 5.37 µM
- CC50 [19]: > 100 µM
- Log10 TGI50 [19]: −4.11
- Log10 TGI50 [20]: −5.00
- GI50 [20, 29]: 2.99 µM
- GI50 [20, 30]: 3.02 µM
- CC50 [20, 33]: > 100 µM
- GI50 [21, 27]: 3.83 µM
- GI50 [21, 28]: 3.8 µM
- CC50 [21]: > 100 µM
- Log10 TGI50 [21]: >−4.00
- GI50 [22, 29]: 1.78 µM
- GI50 [22, 30]: 1.78 µM
- CC50 [22, 33]: 18.2 µM
- Log10 TGI50 [22]: −5.36
- GI50 [23, 27]: 16.2 µM
- GI50 [23, 28]: 16.2 µM
- CC50 [23]: > 100 µM
- Log10 TGI50 [23]: >−4.00
- GI50 [24, 27]: 9.67 µM
- GI50 [24, 28]: 9.77 µM
- CC50 [24]: > 100 µM
- Log10 TGI50 [24]: >−4.00
- GI50 [25, 27]: 3.6 µM
- GI50 [25, 28]: 3.63 µM
- CC50 [25]: > 100 µM
- Log10 TGI50 [25]: >−4.00
- GI50 [26]: 1.64 to 2.23 µM
